Literature values, collected in patent publication US20050227998A1, “Compositions and methods of decreasing nicotine withdrawal” (priority 2004, published 2005).

System: monkeys

In the case of `CN1[C@@H]2C[C@@H](OC(=O)[C@H](CO)c3ccccc3)C[C@H]1[C@@H]1O[C@@H]12` [scopolamine, Scopolamine], the smoking patterns is listed as “decreased”.
